Laboratory results as given in patent publication US12241114B2, “Biophysical platform for drug development based on energy landscape” (BRANDEIS UNIVERSITY, priority 2014, dated 2025).
Changes are numbered by the printed parent chain. Values belong to the compound of their own block, whether it stands above or below them.

Legend:
Y199H modern Aurora A = molecular target: T1, Y199H modern Aurora A (Homo sapiens, UniProt O14965, T288V/Y199H); assay: Isothermal titration calorimetry of TPX2 binding to Y199H Aurora A; settings: Y199H versus modern Aurora A
T1 sequence (O14965 122-403 Y199H/T288V): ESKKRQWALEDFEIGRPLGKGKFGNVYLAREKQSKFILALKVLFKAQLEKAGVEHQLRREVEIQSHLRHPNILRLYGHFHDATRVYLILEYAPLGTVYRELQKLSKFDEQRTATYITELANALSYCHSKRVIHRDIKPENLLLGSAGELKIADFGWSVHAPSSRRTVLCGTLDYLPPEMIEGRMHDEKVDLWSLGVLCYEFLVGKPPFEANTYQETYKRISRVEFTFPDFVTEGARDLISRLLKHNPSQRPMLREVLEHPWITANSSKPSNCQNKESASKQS
Description: FIGS. 33A-33C are plots and schematics showing Y199 is an Aurora A hotspot important in TPX2 binding.
All titrations were carried out using Nano ITC (TA instruments) and analyzed via the NanoAnalyze software using the independent fit model. Injectant was added in […] volume, every 180 s, with a constant stirring speed at 350 rpm and at 25° C. Prior to ITC titration, both protein and peptide were dialyzed/resuspended in 20 mM TrisHCl, 200 mM NaCl, 10% (v/v) glycerol, 1 mM TCEP, pH 7.50.

[1] = molecular target: T2, unphosphorylated Aurora A (Homo sapiens, UniProt O14965); assay: Stopped-flow tryptophan fluorescence binding and dissociation kinetics on unphosphorylated Aurora A
T2 sequence (O14965 122-403): T1 sequence (O14965 122-403 Y199H/T288V) with H78Y, V167T
Description: The stopped-flow instrument is a SX20 series from AppliedPhotophysics.
In the following equations, K1, K2 and K3 equal to:
[formula] Error bars calculations of the dissociation constant parameter (calculated from the kinetics) are calculated using classical error propagation equations. Aurora A Wild-Type Binding to MantATP

Aurora A wild-type = molecular target: T3, Aurora A wild-type (Homo sapiens, UniProt O14965); assay: FRET stopped-flow kinetics of MantATP binding to Aurora A; settings: 10° C., double exponential
T3 sequence (O14965 122-403): T1 sequence (O14965 122-403 Y199H/T288V) with H78Y, V167T
Description: FRET using intrinsic tryptophan fluorescence is used to monitor MantATP binding kinetics to Aurora A at 10° C. […] In the release of MantATP experiment or koff, 10 μM/10 μM Aurora A/MantATP complex were diluted with buffer (ratio 1:10). A significant decrease in the fluorescence intensity of Aurora A (excitation at 295 nm, emission cut-off at 395 nm) can be seen due to the MantATP release.

weakening of binding by Y199H mutation of Aurora A (Y199H modern Aurora A): approximately 20 fold
Compound: modern TPX2: modern-day TPX2 protein, allosteric activator of Aurora A, residues 1-45 (MSQVKSSYSYDAPSDFINFSSLDDEGDTQNIDSWFEEKANLENKL; UniProt Q9ULW0 1-45, looked up, fragment)

tighter binding from the conformational change after drug binding [1]: three orders of magnitude | weakening of overall affinity by the DFG-in/-out equilibrium [1]: 20% | dissociation kinetics ([1]; 25° C., after 30-fold dilution of the complex): slow, taking hours to be released | Keq of the induced fit step ([1]; 25° C., global fit): 5×10^−4
Compound: CO[C@@H](C(=O)N1Cc2n[nH]c(NC(=O)c3ccc(N4CCN(C)CC4)cc3)c2C1)c1ccccc1 [Danusertib]

apparent rate constant of dissociation ([1]; 10° C., after 10-fold dilution of the complex): 50 s⁻¹ | observed off rate, times faster than the Danusertib off rate ([1]; Gleevec versus Danusertib): 10^6-10^7
Compound: Cc1ccc(NC(=O)c2ccc(CN3CCN(C)CC3)cc2)cc1Nc1nccc(-c2cccnc2)n1 [Gleevec]

plateau of second observed rate constant (Aurora A wild-type): around 20 s^−1
Compound: MantATP
